The source of these data is patent US12492188B2, “1H-benzo[D]imidazole derivatives as TLR9 inhibitors for the treatment of fibrosis” (BRISTOL-MYERS SQUIBB COMPANY, priority 2020, dated 2025).

Where two headings read alike, the source gives them in different places.

In one experiment the target is T1, human TLR7 (Homo sapiens, UniProt Q9NYK1).
T1 construct: host or cells: HEK-Blue cells (HEK293-derived reporter line)
T1 sequence (Q9NYK1 27-1049): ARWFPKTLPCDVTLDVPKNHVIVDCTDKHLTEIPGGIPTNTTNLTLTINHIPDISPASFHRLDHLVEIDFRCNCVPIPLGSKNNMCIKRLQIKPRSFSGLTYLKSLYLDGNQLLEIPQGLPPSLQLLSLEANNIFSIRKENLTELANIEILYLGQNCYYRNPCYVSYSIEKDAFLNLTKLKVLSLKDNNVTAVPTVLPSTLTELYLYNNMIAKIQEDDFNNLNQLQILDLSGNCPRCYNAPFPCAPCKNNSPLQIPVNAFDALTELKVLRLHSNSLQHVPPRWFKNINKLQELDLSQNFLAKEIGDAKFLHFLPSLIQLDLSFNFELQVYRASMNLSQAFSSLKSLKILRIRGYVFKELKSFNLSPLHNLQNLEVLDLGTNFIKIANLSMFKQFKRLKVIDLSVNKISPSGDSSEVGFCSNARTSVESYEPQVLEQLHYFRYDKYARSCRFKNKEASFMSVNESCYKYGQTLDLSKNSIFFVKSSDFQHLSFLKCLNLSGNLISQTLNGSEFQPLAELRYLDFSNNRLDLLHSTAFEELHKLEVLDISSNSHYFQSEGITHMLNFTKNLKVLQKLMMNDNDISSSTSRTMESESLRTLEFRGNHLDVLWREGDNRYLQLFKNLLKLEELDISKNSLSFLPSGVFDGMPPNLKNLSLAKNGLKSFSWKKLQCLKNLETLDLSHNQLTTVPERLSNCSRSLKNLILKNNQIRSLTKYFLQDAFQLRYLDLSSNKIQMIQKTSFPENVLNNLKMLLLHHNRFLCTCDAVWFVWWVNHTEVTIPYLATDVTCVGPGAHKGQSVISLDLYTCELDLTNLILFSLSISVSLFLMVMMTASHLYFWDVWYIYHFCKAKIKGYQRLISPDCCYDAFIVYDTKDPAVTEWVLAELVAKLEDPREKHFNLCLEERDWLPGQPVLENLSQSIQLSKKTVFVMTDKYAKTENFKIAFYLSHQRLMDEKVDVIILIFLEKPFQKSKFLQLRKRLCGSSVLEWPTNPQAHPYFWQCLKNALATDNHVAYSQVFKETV
Description: TLR7 inhibition reporter assay (HEK-Blue cells, secreted embryonic alkaline phosphatase reporter). The experiment is classed as cell-based. As to conditions: HEK-Blue cells overexpressing human TLR7, stimulated with gardiquimod 7.5 μM; read-out: TLR 7 IC50. How it is done:
TLR7/8/9 Inhibition Reporter Assays
HEK-Blue™-cells (Invivogen) overexpressing human TLR7, TLR8 or TLR9 receptors were used for screening inhibitors of these receptors using an inducible SLAP (secreted embryonic alkaline phosphatase) reporter gene under the control of the […] minimal promoter fused to five NF-κB and AP-1-binding sites. Briefly, cells are seeded into Greiner 384 well plates (15000 cells per well for TLR7, 20,000 for TLR8 and 25,000 for TLR9) and then treated with test compounds in DMSO to yield a final dose response concentration range of 0.05 nM-50 μM. After a 30 minute compound pre-treatment at room temperature, the cells are then stimulated with a TLR7 ligand (gardiquimod at a final concentration of 7.5 μM), TLR8 ligand (R848 at a final concentration of 15.9 μM) or TLR9 ligand (ODN2006 at a final concentration of 5 nM) to activate NF-κB and AP-1 which induce the production of SLAP. After a 22 hour incubation at 37° C., […], SLAP levels are determined with the addition of HEK-Blue™ Detection reagent (Invivogen), a cell culture medium that allows for detection of SLAP, according to manufacturer's specifications. The percent inhibition is determined as the […] in the HEK-Blue signal present in wells treated with agonist plus DMSO alone compared to wells treated with a known inhibitor.
On the technique in general: Reporter assays use an easily measured gene product as a stand-in for the process of interest.

A further experiment concerns the target T2, human TLR9 (Homo sapiens, UniProt Q9NR96).
T2 construct: host or cells: HEK-Blue cells (HEK293-derived reporter line)
T2 sequence (Q9NR96 26-1032): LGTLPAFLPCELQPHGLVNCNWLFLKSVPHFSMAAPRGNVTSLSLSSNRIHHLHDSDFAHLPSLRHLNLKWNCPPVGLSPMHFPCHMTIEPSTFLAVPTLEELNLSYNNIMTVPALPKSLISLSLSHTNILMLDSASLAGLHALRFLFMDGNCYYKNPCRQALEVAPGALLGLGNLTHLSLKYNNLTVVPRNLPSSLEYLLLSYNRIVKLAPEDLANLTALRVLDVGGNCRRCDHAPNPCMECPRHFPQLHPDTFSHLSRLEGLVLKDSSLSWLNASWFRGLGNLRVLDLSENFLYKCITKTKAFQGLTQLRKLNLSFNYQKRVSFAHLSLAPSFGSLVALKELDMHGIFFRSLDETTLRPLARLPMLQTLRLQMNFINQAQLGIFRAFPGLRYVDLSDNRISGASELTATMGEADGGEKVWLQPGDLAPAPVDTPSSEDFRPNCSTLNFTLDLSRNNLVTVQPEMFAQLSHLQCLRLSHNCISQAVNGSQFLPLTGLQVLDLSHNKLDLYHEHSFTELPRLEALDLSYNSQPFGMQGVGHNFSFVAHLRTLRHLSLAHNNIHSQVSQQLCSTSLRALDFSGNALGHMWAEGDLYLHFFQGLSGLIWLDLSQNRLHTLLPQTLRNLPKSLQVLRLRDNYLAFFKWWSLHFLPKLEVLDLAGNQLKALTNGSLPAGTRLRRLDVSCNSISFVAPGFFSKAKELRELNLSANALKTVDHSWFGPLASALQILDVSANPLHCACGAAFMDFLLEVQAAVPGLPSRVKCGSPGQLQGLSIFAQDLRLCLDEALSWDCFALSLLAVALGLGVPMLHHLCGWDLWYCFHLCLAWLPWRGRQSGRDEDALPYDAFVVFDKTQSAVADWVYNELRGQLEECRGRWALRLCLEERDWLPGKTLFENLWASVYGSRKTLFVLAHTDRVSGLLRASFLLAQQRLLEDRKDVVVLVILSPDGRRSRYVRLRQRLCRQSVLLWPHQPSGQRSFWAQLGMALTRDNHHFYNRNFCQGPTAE
Description: TLR9 inhibition reporter assay (HEK-Blue cells, secreted embryonic alkaline phosphatase reporter). The experiment is classed as cell-based. An outline of the steps:
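Inhibitors are tested in dose response (0.05 nM–50 μM) on HEK-Blue reporter cells expressing human TLR7, TLR8 or TLR9. After 30 min at room temperature, each line is stimulated with its own agonist (gardiquimod 7.5 μM, R848 15.9 μM or ODN2006 5 nM, final) and SEAP is measured 22 h later.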

[1] abbreviates: HEK-Blue cells overexpressing human TLR9, stimulated with ODN2006 5 nM, 22 hour incubation, reporter readout.
Setting [2] is: HEK-Blue cells overexpressing human TLR9, stimulated with ODN2006 5 nM, read-out: TLR 9 IC50.

As usually defined, the IC50 is the point on the concentration scale where inhibition reaches its midpoint. As to `Cc1cc(-c2ccc(CN3CCC(N4CCCC4)CC3)cc2)cc2c1nc(-c1ccc(S(C)(=O)=O)cc1)n2C` [Example 369, 1,4-dimethyl-2-(4-(methylsulfonyl)phenyl)-6-(4-((4-(pyrrolidin-1-yl)piperidin-1-yl)methyl)phenyl)-1H-benzo[d]imidazole], the IC50 on human TLR7 was found to be 900 nM; against human TLR9 (setting [1]), 120 nM; on human TLR9 (setting [2]) it was 121 nM.
`Cc1cc(-c2ccc(CN3CCCC3)cc2)cc2c1nc(-c1ccc(S(C)(=O)=O)cc1)n2C` [Example 395, 1,4-dimethyl-2-(4-(methylsulfonyl)phenyl)-6-(4-(pyrrolidin-1-ylmethyl)phenyl)-1H-benzo[d]imidazole]: the results for the half-maximal inhibitory concentration (IC50) at human TLR7, against human TLR9 (setting [1]) and at human TLR9 (setting [2]) were 11200 nM, 1400 nM and 1360 nM, respectively.
On the same counts, the results for `Cc1cc(-c2ccc(C3CCN(C)CC3)cc2)cc2c1nc(-c1ccc(S(C)(=O)=O)cc1)n2C` [Example 363, 1,4-dimethyl-6-(4-(1-methylpiperidin-4-yl)phenyl)-2-(4-(methylsulfonyl)phenyl)-1H-benzo[d]imidazole] are 4300 nM, 140 nM and 100 nM.
Turning to `Cc1cc(-c2ccc(CN3C[C@@H]4CN(CC(C)C)C[C@@H]4C3)cc2)cc2c1nc(-c1ccc(S(C)(=O)=O)cc1)n2C` [Example 396, 6-(4-((cis-5-isobutylhexahydropyrrolo[3,4-c]pyrrol-2(1H)-yl)methyl)phenyl)-1,4-dimethyl-2-(4-(methylsulfonyl)phenyl)-1H-benzo[d]imidazole], the values for the IC50 at human TLR7, at human TLR9 (setting [1]) and on human TLR9 (setting [2]) were 6700 nM, 200 nM and 203 nM, respectively.
As for `CC(C)N1CCC(N2CCC(c3cc(F)c4nc(-c5ccc(S(C)(=O)=O)cc5)n(C5CC5)c4c3)CC2)CC1` [Example 115, 1-cyclopropyl-4-fluoro-6-(1′-isopropyl-[1,4′-bipiperidin]-4-yl)-2-(4-(methylsulfonyl)phenyl)-1H-benzo[d]imidazole], the IC50 came to 1900 nM at human TLR7 and 24 nM on human TLR9 (setting [1]).
Take `Cc1cc(-c2ccc(CN3C[C@@H]4CN(C(C)C)C[C@@H]4C3)cc2)cc2c1nc(-c1ccc(S(C)(=O)=O)cc1)n2C` [Example 397, 6-(4-((cis-5-isopropylhexahydropyrrolo[3,4-c]pyrrol-2(1H)-yl)methyl)phenyl)-1,4-dimethyl-2-(4-(methylsulfonyl)phenyl)-1H-benzo[d]imidazole]: the half-inhibitory concentration (IC50) turned out to be 2600 nM on human TLR7, 86 nM on human TLR9 (setting [1]) and 86 nM on human TLR9 (setting [2]).
Regarding `Cn1c(-c2ccc(S(C)(=O)=O)cc2)nc2ccc(C3CCN(C4CCCN(C5CCOCC5)CC4)CC3)c(F)c21` (stereo not shown) [Example 317, 7-fluoro-1-methyl-2-(4-(methylsulfonyl)phenyl)-6-(1-(1-(tetrahydro-2H-pyran-4-yl)azepan-4-yl)piperidin-4-yl)-1H-benzo[d]imidazole], the half-inhibitory concentration (IC50) at human TLR7 was more than 50000 nM; at human TLR9 (setting [2]), 18 nM; at human TLR9 (HEK-Blue human TLR9 reporter cells) it was 18 nM.
As to `Cn1c(-c2ccc(S(C)(=O)=O)cc2)nc2ccc(C3CCN(C4CCN(C5COC5)CC4)CC3)c(F)c21` [Example 263, 7-fluoro-1-methyl-2-(4-(methylsulfonyl)phenyl)-6-(1′-(oxetan-3-yl)-[1,4′-bipiperidin]-4-yl)-1H-benzo[d]imidazole], the concentration for half-maximal inhibition (IC50) is 11900 nM on human TLR7, 1800 nM against human TLR9 and 1770 nM on human TLR9 (setting [2]).
Consider `Cc1cc(-c2ccc(CN3C[C@H]4CN(C)C[C@H]4C3)cc2)cc2c1nc(-c1ccc(S(C)(=O)=O)cc1)n2C` [Example 398, 1,4-dimethyl-6-(4-((cis-5-methylhexahydropyrrolo[3,4-c]pyrrol-2(1H)-yl)methyl)phenyl)-2-(4-(methylsulfonyl)phenyl)-1H-benzo[d]imidazole], for which the results for the IC50 at human TLR7, against human TLR9 (setting [1]) and on human TLR9 (setting [2]) were 1700 nM, 130 nM and 128 nM, respectively.
With `COc1ccc(-c2nc3c(C)cc(C4CCN(C5CC6CCC(C5)N6C5CCC5)CC4)cc3n2C)cc1OC` (stereo not shown) [Example 146, 6-(1-(8-cyclobutyl-8-azabicyclo[3.2.1]octan-3-yl)piperidin-4-yl)-2-(3,4-dimethoxyphenyl)-1,4-dimethyl-1H-benzo[d]imidazole], the concentration for half-maximal inhibition (IC50) against human TLR9 and at human TLR9 (setting [2]) was 70 nM in each case.
Regarding `Cc1cc(-c2ccc(CN3CCN(CC(C)C)CC3)cc2)cc2c1nc(-c1ccc(S(C)(=O)=O)cc1)n2C` [Example 414, 6-(4-((4-isobutylpiperazin-1-yl)methyl)phenyl)-1,4-dimethyl-2-(4-(methylsulfonyl)phenyl)-1H-benzo[d]imidazole], half-maximal inhibition against human TLR9 (setting [1]) (IC50) required 1800 nM.
Still for that read-out and setting: under `CN(C)c1ccc(-c2nc3ccc(-c4ccc(CN5CCC(N(C)C)CC5)cc4)cc3n2C)cc1` [Example 425, 1-(4-(2-(4-(dimethylamino)phenyl)-1-methyl-1H-benzo[d]imidazol-6-yl)benzyl)-N,N-dimethylpiperidin-4-amine] stands 61 nM.
Turning to `Cc1cc(-c2ccc(OC3CCN(C(C)C)CC3)cc2)cc2c1nc(-c1ccc(S(C)(=O)=O)cc1)n2C` [Example 416, 6-(4-((1-isopropylpiperidin-4-yl)oxy)phenyl)-1,4-dimethyl-2-(4-(methylsulfonyl)phenyl)-1H-benzo[d]imidazole], the IC50 is 1200 nM on human TLR9 (setting [1]) and 1190 nM at human TLR9 (setting [2]).
On to `Cc1cc(-c2ccc(N3CCN(CC4CCC4)CC3)cc2)cc2c1nc(-c1ccc(S(C)(=O)=O)cc1)n2C` [Example 172, 6-(4-(4-(cyclobutylmethyl)piperazin-1-yl)phenyl)-1,4-dimethyl-2-(4-(methylsulfonyl)phenyl)-1H-benzo[d]imidazole], for which the IC50 against human TLR9 is 1800 nM; at human TLR9 (setting [2]), 1780 nM.
